Assay results: EP4640686A1, “DEGRADER FOR DEGRADING BRD PROTEIN AND PHARMACEUTICAL COMPOSITION CONTAINING SAME” (Innocure Therapeutics, Inc., priority 2022, dated 2024)
Where two headings read alike, the source gives them in different places.

How the values were obtained:
Assay type in all cases: cell-based
MDA-MB-231 = experiment: Cancer cell antiproliferative activity / cell viability in MDA-MB-231 cells (72 h treatment); details: Homo sapiens, read-out: BRD4 (IC50)
Method: (§1) The human breast cancer cell line [MDA-MB-231] was cultured in RPMI medium with the addition of 10% fetal bovine serum, penicillin [100U/ml], and streptomycin [[…]]. The synthesized compounds were prepared with a 10 mM or 50 mM raw material solution dissolved in DMSO [dimethyl sulfoxide], and were diluted sequentially and treated. [RPMI2650] and [SNU2972] were cultivated under specific conditions.
(§2) To observe cell growth inhibition, cells were dispensed in a concentration of 5,000 cells/well in a 96-well plate, and samples prepared at various concentrations were treated for 72 hours. The IC50 value (the concentration of the compound achieving 50% cytostaticism) is the average value of the results of three independent measurements.

BRD4 [1] = biological target: T1, BRD4 (Homo sapiens, UniProt O60885); experiment: BRD4 protein degradation by western blotting in RPMI2650 cells (24 h treatment); parameters: To evaluate the resolution of PROTAC for BRD4 expressed in cells; endogenous in cells; host or cells: RPMI2650
How it was run: (§3)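 Cells seeded at 5 X 10^5 cells/well and exposed to serially diluted compound for 24 hours. Western blot bands were quantified by densitometry, normalized to β-actin or GAPDH and expressed as % of 0.1% DMSO vehicle. DC50 is the concentration giving 50% loss of protein.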

SNU2972 = experiment: Cancer cell antiproliferative activity / cell viability in SNU2972 cells (72 h treatment); details: read-out: BRD4 (IC50)
Method: as §1, §2

BRD4-NUT = biological target: T2, BRD4-NUT (Homo sapiens, UniProt O60885+Q86Y26); experiment: BRD4-NUT protein degradation by western blotting in RPMI2650 cells (24 h treatment)
T2 construct: endogenous in cells; host or cells: RPMI2650
How it was run: as §3

RPMI2650 = experiment: Cancer cell antiproliferative activity / cell viability in RPMI2650 cells (72 h treatment); details: Homo sapiens
How it was run: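 RPMI2650 human cells were grown under specific culture conditions and seeded at 5,000 cells/well in 96-well plates. Test compounds, dissolved in DMSO as 10 mM or 50 mM stock solutions and serially diluted, were applied at various concentrations for 72 hours. IC50, the concentration giving 50% cytostasis, was averaged over three independent measurements.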

BRD4 [2] = biological target: T1, BRD4; experiment: BRD4 protein degradation by western blotting in MDA-MB-231 cells (24 h treatment); parameters: To evaluate the resolution of PROTAC for BRD4 expressed in cells; endogenous in cells; host or cells: MDA-MB-231
[3] = read-out: BR04 (DC50), RPMI2650
[4] = read-out: BRD4-NUT (DC50), RPMI2650
[5] = RPMI-2650, RPMI2650, read-out: BRD4 (IC50)
[6] = RPM12650, read-out: BRD4 (DC50)
[7] = RPM12650, read-out: BRD4-NUT (DC50)
[8] = RPMI-2650, RPM12650, read-out: Cell Viatility (IC50)

Compound	IC50 (MDA-MB-231) [nM]	DC50 (BRD4 [1]; [3]) [nM]	IC50 (SNU2972) [nM]	DC50 (BRD4-NUT; [4]) [nM]	IC50 (RPMI2650; [5]) [nM]	DC50 (BRD4 [2]) [nM]	DC50 (BRD4 [1]; [6]) [nM]	DC50 (BRD4-NUT; [7]) [nM]	IC50 (RPMI2650; [8]) [nM]
Cc1sc2c(c1C)C(c1ccc(Cl)cc1)=N[C@@H](CC(=O)N1CCC(CN3CCN(c4cc5c(C)nn(C6CCC(=O)NC6=O)c(=O)c5cc4F)CC3)CC1)c1nnc(C)n1-2 (stereo partly drawn) [ICT-0000953, 3-(6-(4-((1-(2-((S)-4-(4-chlorophenyl)-2,3,9-trimethyl-6H-thieno[3,2-f][1,2,4]triazolo[4,3-a][1,4]diazepine-6-il)acetyl)piperidine-4-il)methyl)piperazine-1-il)-7-fluoro-4-methyl-1-oxopthalazine-2(1H)-yl)piperidine-2,6-dione]	< 100	< 100	< 100	< 100	< 100	< 100			
Cc1sc2c(c1C)C(c1ccc(Cl)cc1)=N[C@@H](CC(=O)N1CCC(CN3CCN(c4cc5cnn(C6CCC(=O)NC6=O)c(=O)c5cc4F)CC3)CC1)c1nnc(C)n1-2 (stereo partly drawn) [ICT-0000971, 3-(6-(4-((1-(2-((S)-4-(4-chlorophenyl)-2,3,9-trimethyl-6H-thieno[3,2-f][1,2,4]triazolo[4,3-a][1,4]diazepine-6-day)acetyl)piperidine-4-il)methyl)piperazine-1-yl)7-fluoro-1-oxopthalazine-2(1H)-yl)piperidine-2,6-dione]	< 100	< 100	< 100	< 100	< 100	< 100			
Cc1sc2c(c1C)C(c1ccc(Cl)cc1)=N[C@@H](CC(=O)N1CCC(CN3CCN(c4cc5c(=O)n(C6CCC(=O)NC6=O)ncc5cc4F)CC3)CC1)c1nnc(C)n1-2 (stereo partly drawn) [ICT-0000972, 3-(7-(4-((1-(2-((S)-4-(4-chlorophenyl)-2,3,9-trimethyl-6H-thieno[3,2-f][1,2,4]triazolo[4,3-a][1,4]diazepine-6-day)acetyl)piperidine-4-il)methyl)piperazine-1-yl)-6-fluoro-1-oxopthalazine-2(1H)-yl)piperidine-2,6-dione]	< 100	< 100	< 100	< 100	100 to 1000	< 100			
Cc1sc2c(c1C)C(c1ccc(Cl)cc1)=N[C@@H](CC(=O)N1CC(N3CCN(c4ccc5c(=O)n(C6CCC(=O)NC6=O)ncc5c4)CC3)C1)c1nnc(C)n1-2 (stereo partly drawn) [ICT-0000973, 3-(6-(4-(1-(2-((S)-4-(4-chlorophenyl)-2,3,9-trimethyl-6H-thieno[3,2-f][1,2,4]triazolo[4,3-a][1,4]diazepine-6-day)acetyl)azetidine-3-il)piperazine-1-yl)-1-oxopthalazine-2(1H)-yl)piperidine-2,6-dione]	< 100	< 100	100 to 1000	< 100	100 to 1000	< 100			
Cc1sc2c(c1C)C(c1ccc(Cl)cc1)=N[C@@H](CC(=O)N1CC(N3CCN(c4ccc5c(=O)n(C6CCC(=O)NC6=O)nc(C)c5c4)CC3)C1)c1nnc(C)n1-2 (stereo partly drawn) [ICT-0000974, 3-(6-(4-(1-(2-((S)-4-(4-chlorophenyl)-2,3,9-trimethyl-6H-thieno[3,2-f][1,2,4]triazolo[4,3-a][1,4]diazepine-6-yl)acetyl)azetidine-3-il)piperazine-1-yl)-4-methyl-1-oxopthalazine-2(1H)-yl)piperidine-2,6-dione]	< 100	< 100	< 100	< 100	< 100	< 100			
Cc1sc2c(c1C)C(c1ccc(Cl)cc1)=N[C@@H](CC(=O)N1CCC(CN3CCN(c4ccc5c(C)nn(C6CCC(=O)NC6=O)c(=O)c5c4)CC3)CC1)c1nnc(C)n1-2 (stereo partly drawn) [ICT-0000982, 3-(7-(4-((1-(2-((S)-4-(4-chlorophenyl)-2,3,9-trimethyl-6H-thieno[3,2-f][1,2,4]triazolo[4,3-a][1,4]diazepine-6-day)acetyl)piperidine-4-il)methyl)piperazine-1-yl)4-methyl-1-oxopthalazine-2(1H)-yl)piperidine-2,6-dione]	< 100	< 100	< 100	< 100	< 100	< 100			
Cc1sc2c(c1C)C(c1ccc(Cl)cc1)=N[C@@H](CC(=O)Nc1ccc(N3CCN(c4ccc5c(=O)n(C6CCC(=O)NC6=O)nc(C)c5c4)CC3)cc1)c1nnc(C)n1-2 (stereo partly drawn) [ICT-0001410, 2-((S)-4-(4-chlorophenyl)-2,3,9-trimethyl-6H-thieno[3,2-f][1,2,4]triazolo[4,3-a][1,4]diazepine-6-yl)-N-(4-(4-(2-(2,6-dioxopiperidin-3-yl)-4-methyl-1-oxo-1,2-dihydroptalazine-6-yl)piperazine-1-yl)phenyl)acetamide]	< 100	< 100		< 100	< 100	< 100			
Cc1sc2c(c1C)C(c1ccc(Cl)cc1)=N[C@@H](CC(=O)Nc1ccc(CN3CCN(c4ccc5c(=O)n(C6CCC(=O)NC6=O)nc(C)c5c4)CC3)cc1)c1nnc(C)n1-2 (stereo partly drawn) [ICT-0001423, 2-[(9S)-7-(4-chlorophenyl)-4,5,13-trimethyl-3-thia-1,8,11,12-tetraazatricyclo[8.3.0.0^2,^6]trideca-2(6),4,7,10,12-pentaene-9-yl]-N-[4-({4-[2-(2,6-dioxopiperidin-3-yl)-4-methyl-1-oxo-1,2-dihydroptalazine-6-yl]piperazine-1-yl}methyl)phenyl]acetamide]	< 100	< 100		< 100	< 100	< 100			
CC[C@@H]1c2nnc(C)n2-c2cnc(Nc3ccc(C(=O)N4CCN(CCNc5cccc6cnn(C7CCC(=O)NC7=O)c(=O)c56)CC4)cc3OC)nc2N1CC1CCCCC1 (stereo partly drawn) [ICT-0001601, 3-(8-((2-(4-(4-(((R)-5-(cyclohexylmethyl)-4-ethyl-1-methyl-4,5-dihydro-[1,2,4]triazolo[4,3-f]pteridine-7-yl)amino)3-methoxybenzoyl)piperazine-1-il)ethyl)amino)1-oxopthalazine-2(1H)-yl)piperidine-2,6-dione]							< 100	< 100	< 100
CC[C@@H]1c2nnc(C)n2-c2cnc(Nc3ccc(C(=O)N4CCN(CCNc5cccc6c(=O)n(C7CCC(=O)NC7=O)ncc56)CC4)cc3OC)nc2N1CC1CCCCC1 (stereo partly shown) [ICT-0001602]							< 100	100 to 1000	> 1000
CC[C@@H]1c2nnc(C)n2-c2cnc(Nc3ccc(C(=O)N4CCN(CCNc5ccc6c(=O)n(C7CCC(=O)NC7=O)ncc6c5)CC4)cc3OC)nc2N1CC1CCCCC1 (stereo partly drawn) [ICT-0001603, 3-(6-((2-(4-(4-(((R)-5-(cyclohexylmethyl)-4-ethyl-1-methyl-4,5-dihydro-[1,2,4]triazolo[4,3-f]pteridine-7-yl)amino)3-methoxybenzoyl)piperazine-1-yl)ethyl)amino)1-oxopthalazine-2(1H)-yl)piperidine-2,6-dione]							< 100	< 100	> 1000
